Among the data in ChEMBL document CHEMBL3826884, “Synthesis and biological evaluation of 3-substituted 5-benzylidene-1-methyl-2-thiohydantoins as potent NADPH oxidase (NOX) inhibitors” (Bioorg Med Chem, 2016) are Ki and Ratio Ki values, retold here.

The structures appear in SMILES notation.

The target of one assay is T1, NADPH oxidase 1 (Homo sapiens, UniProt Q9Y5S8).
T1 sequence (Q9Y5S8 whole entry): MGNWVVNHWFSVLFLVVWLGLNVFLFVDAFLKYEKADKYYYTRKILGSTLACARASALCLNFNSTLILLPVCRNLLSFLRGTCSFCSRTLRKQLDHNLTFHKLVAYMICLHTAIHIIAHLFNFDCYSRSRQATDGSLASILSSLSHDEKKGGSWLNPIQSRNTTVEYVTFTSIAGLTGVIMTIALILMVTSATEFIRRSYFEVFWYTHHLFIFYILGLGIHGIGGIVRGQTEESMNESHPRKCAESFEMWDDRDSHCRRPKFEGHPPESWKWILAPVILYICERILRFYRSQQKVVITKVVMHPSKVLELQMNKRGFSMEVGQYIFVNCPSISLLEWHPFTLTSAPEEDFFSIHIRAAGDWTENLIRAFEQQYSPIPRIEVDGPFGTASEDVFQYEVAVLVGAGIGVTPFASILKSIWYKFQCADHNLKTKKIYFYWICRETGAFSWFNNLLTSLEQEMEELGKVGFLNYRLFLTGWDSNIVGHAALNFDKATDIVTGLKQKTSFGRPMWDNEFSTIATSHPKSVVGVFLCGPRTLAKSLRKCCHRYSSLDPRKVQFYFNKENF
Put plainly: Inhibition of human NOX1 expressed in Drosophila DUOX knockdown model assessed as decrease in ROS production by lucigenin chemiluminescence assay.

The target of a further assay is T2, NADPH oxidase 4 (Homo sapiens, UniProt Q9NPH5).
T2 sequence (Q9NPH5 whole entry): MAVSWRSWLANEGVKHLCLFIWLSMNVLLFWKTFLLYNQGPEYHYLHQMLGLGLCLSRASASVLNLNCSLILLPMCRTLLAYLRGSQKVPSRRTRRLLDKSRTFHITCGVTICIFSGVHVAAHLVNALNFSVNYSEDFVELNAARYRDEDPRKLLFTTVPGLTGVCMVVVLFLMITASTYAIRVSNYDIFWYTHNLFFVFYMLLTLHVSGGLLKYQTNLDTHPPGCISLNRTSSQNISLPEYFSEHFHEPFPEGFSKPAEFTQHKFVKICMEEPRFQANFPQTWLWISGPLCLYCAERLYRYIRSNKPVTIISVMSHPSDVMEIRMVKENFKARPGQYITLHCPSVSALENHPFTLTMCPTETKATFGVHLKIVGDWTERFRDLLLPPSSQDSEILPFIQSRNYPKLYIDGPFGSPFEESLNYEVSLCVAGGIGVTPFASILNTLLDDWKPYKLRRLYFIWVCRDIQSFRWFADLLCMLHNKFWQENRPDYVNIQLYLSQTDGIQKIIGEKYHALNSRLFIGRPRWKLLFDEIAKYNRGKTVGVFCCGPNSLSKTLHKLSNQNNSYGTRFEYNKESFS
In words: Inhibition of human NOX4 expressed in Drosophila DUOX knockdown model assessed as decrease in ROS production by lucigenin chemiluminescence assay.

The species named for another assay is Homo sapiens. In words: Selectivity ratio of Ki for human NOX1 expressed in Drosophila DUOX knockdown model to Ki for human NOX4 expressed in Drosophila DUOX knockdown model.

Regarding `CN1C(=S)N(c2ccc3c(c2)CCC3)C(=O)/C1=C/c1cccc(O)c1O`, the Ki at NADPH oxidase 1 stood at 6.63 µM; on NADPH oxidase 4, 2.36 µM. Besides, in the assay filed under Homo sapiens, the Ratio Ki turned out to be 2.8.
On the same counts, the results for `CCc1ccc(N2C(=O)/C(=C/c3ccc(O)cc3O)N(C)C2=S)cc1` are 8.4 µM, 2.39 µM and 3.5.
With `CN1C(=S)N(c2ccccc2)C(=O)/C1=C/c1cccc(O)c1O`, the values for the inhibitory constant (Ki) at NADPH oxidase 1 and at NADPH oxidase 4 were 49.7 µM and 24 µM, respectively.
Take `CN1C(=S)N(c2ccc3c(c2)CCC3)C(=O)/C1=C/c1ccc(N(C)C)cc1`: the results for the inhibition constant (Ki) at NADPH oxidase 1 and at NADPH oxidase 4 were 8.04 µM and 13.1 µM, respectively.
As for `CN1C(=S)N(c2ccccc2)C(=O)/C1=C/c1ccc(N(C)C)cc1`, the Ki on NADPH oxidase 1 was found to be 1.95 µM; at NADPH oxidase 4 it was 0.88 µM. For the same molecule, in the assay filed under Homo sapiens, the Ratio Ki came to 2.2.
As for `CN1C(=S)N(C2CCCCC2)C(=O)/C1=C/c1cccc(O)c1O`, the values for the inhibition constant Ki at NADPH oxidase 1 and at NADPH oxidase 4 were 7.39 µM and 6.35 µM, respectively.
The corresponding values for `CN1C(=S)N(c2ccccc2)C(=O)/C1=C/c1ccc(O)cc1O` are 33.8 µM and 27.7 µM.
On the same counts, the results for `CN1C(=S)N(C2CCCCC2)C(=O)/C1=C/c1ccc(N(C)C)cc1` are 12.3 µM and 35.6 µM.
`CCc1ccc(N2C(=O)/C(=C/c3ccc(N(C)C)cc3)N(C)C2=S)cc1`: the figures for the Ki on NADPH oxidase 1 and on NADPH oxidase 4 were 4.39 µM and 2.63 µM, respectively.
The corresponding values for `CCc1ccc(N2C(=O)/C(=C/c3cccc(O)c3O)N(C)C2=S)cc1` are 27.9 µM and 26.4 µM.
On the same counts, the results for `CN1C(=S)N(c2cccc(Cl)c2)C(=O)/C1=C/c1cccc(O)c1O` are 7.65 µM and 9.31 µM.
On the same counts, the results for `Cc1ccc(N2C(=O)/C(=C/c3ccc(N(C)C)cc3)N(C)C2=S)cc1` are 1.02 µM and 2.33 µM.
On to `CN1C(=S)N(c2cccc(Cl)c2)C(=O)/C1=C/c1ccc(O)cc1O`, for which the inhibition constant Ki turned out to be 34.5 µM on NADPH oxidase 1 and 33.8 µM at NADPH oxidase 4.
As for `Cc1ccc(N2C(=O)/C(=C/c3ccc(O)cc3O)N(C)C2=S)cc1`, the figures for the Ki at NADPH oxidase 1 and on NADPH oxidase 4 were 27.1 µM and 34.6 µM, respectively.
On the same counts, the results for `CN1C(=S)N(C2CCCCC2)C(=O)/C1=C/c1ccc(O)cc1O` are 26 µM and 37.6 µM.
Consider `Cc1ccc(N2C(=O)/C(=C/c3cccc(O)c3O)N(C)C2=S)cc1`, for which the inhibition constant Ki at NADPH oxidase 1 worked out at 50.3 µM; on NADPH oxidase 4, 27 µM.
On the same counts, the results for `CN1C(=S)N(c2cccc(Cl)c2)C(=O)/C1=C/c1ccc(N(C)C)cc1` are 0.35 µM and 0.84 µM.
The corresponding values for `CN1C(=S)N(c2ccc3c(c2)CCC3)C(=O)/C1=C/c1ccc(O)cc1O` are 6.58 µM and 6.83 µM.
